This passage reports IC50 results from patent publication US6214846A, “Substituted 3-(benzylamino)piperidine derivatives and their use as therapeutic agents” (Merck Sharp & Dohme Limited, priority 1997, dated 2001).

SMILES strings stand for the structures. Where a name gives a salt, the structure may show the parent alone.

The target of this experiment is human NK1 receptor (Homo sapiens, UniProt P25103). In words: IC50 at the human NK1 receptor (methods of pages 36 to 39 of WO 93/01165). The class given is binding. The note with it: test method of WO 93/01165. As to the method:
The exemplified compounds of this invention were tested by the methods set out at pages 36 to 39 of International Patent Specification No. WO 93/01165.

Sequence of human NK1 receptor (P25103 whole entry): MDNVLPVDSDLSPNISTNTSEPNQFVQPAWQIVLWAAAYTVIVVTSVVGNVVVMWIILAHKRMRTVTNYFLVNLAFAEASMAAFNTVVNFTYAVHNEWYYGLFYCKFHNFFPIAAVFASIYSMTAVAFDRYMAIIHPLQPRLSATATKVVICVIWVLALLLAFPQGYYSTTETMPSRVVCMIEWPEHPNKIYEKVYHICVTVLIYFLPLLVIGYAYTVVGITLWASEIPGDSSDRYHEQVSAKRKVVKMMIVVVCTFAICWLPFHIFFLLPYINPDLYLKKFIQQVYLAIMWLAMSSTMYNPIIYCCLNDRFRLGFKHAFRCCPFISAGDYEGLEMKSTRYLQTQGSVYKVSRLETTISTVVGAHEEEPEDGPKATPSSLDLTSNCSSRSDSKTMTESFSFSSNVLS

Take `FC(F)(F)Oc1ccc(OC2CC2)c(CN[C@H]2CCCN[C@H]2c2ccccc2)c1` (relative stereo) [Example 1, (±)-(2R3R,2S3S)-N-{[2-Cyclopropoxy-5-(trifluoromethoxy)phenyl]methyl}-2-phenylpiperidin-3-amine Dihydrochloride]: the IC50 (commonly the point on the concentration scale where inhibition reaches its midpoint) was found to be 0.17 nM. In other words, the sub-nanomolar range. `Fc1ccc([C@@H]2NCCC[C@@H]2NCc2cc(OC(F)(F)F)ccc2OC2CC2)cc1` (relative stereo) [Example 3, (±)-(2R3R,2S3S)-N-{[2-Cyclopropoxy-5-(trifluoromethoxy)phenyl]methyl}-2-(4-fluorophenyl)piperidin-3-amine Dihydrochloride] registered an IC50 of 0.2 nM.
